Test results from US20120100072A1, “PET IMAGING OF FIBROGENESIS” (GE HEALTHCARE LIMITED, priority 2009, published 2012).

Key:
[1] = molecular target: T1, membranes prepared from EA-Hy926 cells (integrin αvβ3) (Homo sapiens, UniProt P05106+P06756); test: Competitive 125I-echistatin binding to membranes prepared from EA-Hy926 cells; settings: competition with 125I-echistatin, 1 hour at 37° C., read-out: affinity (inhibition constant)
T1 construct: membranes from the human endothelial adenocarcinoma cell line EA-Hy926 were prepared; endogenous in cells; host or cells: EA-Hy926 (human endothelial cell line), purified membrane fraction
Method: The inhibition constant was measured using a previously-described membrane binding assay (Indrevoll et al, Bioorg & Med Chem Lett, 2006, 16, 6190-6193). In brief, membranes from the human endothelial adenocarcinoma cell line EA-Hy926 were prepared and the Kd calculated for the purified membrane fraction. A competitive binding assay was then established to measure inhibition constants. ^125I-echistatin (GE Healthcare; Code IM304) was used as the labelled ligand and cold echistatin as a reference standard. A total of sixteen dilutions of cold test compound (either cold echistatin or cold PET tracer) were prepared and mixed with a combination of ^125I-echistatin and membrane prior to incubation for 1 hour at 37° C. Following several washes, the bound material was harvested on a filter using a Skatron micro harvester. The filterspots were finally excised and counted in a Packard γ-counter.

[2] = tested on: rat livers; format: in vivo
Method: Outbred male Sprague Dawley rats (180-200 g; Charles River) were used in all bile duct ligation (BDL) and sham studies. After 6 days acclimatization rats were divided into 2 groups (BDL group and sham group). For the BDL animals, the abdomen was shaved and swabbed with betadine solution followed by 5 mg/kg carprofen subcutaneously (s.c.) and 5 mg/kg bupronorphine s.c. and under Isoflurane anaesthesia a mid-line laparotomy was performed and the common bile duct located. Bile duct was double ligated, the first ligation made between the junction of the hepatic ducts and the second above the entrance of the pancreatic ducts. The second group (sham animals) abdomen was shaved and swabbed with betadine solution followed by 5 mg/kg carprofen s.c. and 5 mg/kg bupronorphine s.c. Animals underwent sham surgery where bile duct was manipulated and a suture passed under the bile duct. Before closing 2-3 ml saline was administered into the peritoneum of each animal. […] Animals were closely monitored for the duration of the experiment.
For assessment of PET Tracer 1 in the BDL rat model, static PET images were acquired longitudinally (imaged at 60-90 minutes post-injection) at days 2, 5, 9, 15 and 30 post bile duct ligation surgery or sham surgery. […] Data was analysed using Asipro and Amide software. […]

[3] = tested on: alcoholic liver fibrosis; settings: baboons; cited from earlier work

| Ki [1] [nM] | Compound | difference in uptake between BDL liver and sham ([2]; day 30 post surgery) | difference in liver retention between BDL and sham operated animals ([2]; days 2-15 post surgery (p<0.05)) | effect on alcoholic liver fibrosis [3] |
| --- | --- | --- | --- | --- |
| 5 to 10 | N=C(N)NCCC[C@@H]1NC(=O)[C@@H]2CSSC[C@H](NC(=O)[C@H](CC(=O)O)NC(=O)CNC1=O)C(=O)N[C@@H](Cc1ccccc1)C(=O)N[C@H](C(=O)NCCOCCOCCOCCNC(=O)COCC(N)=O)CSCC(=O)N[C@@H](CCCCNC(=O)COCC(=O)NCCOCCOCCOCCOCCOCCNC(=O)CO/N=C/c1ccc([18F])cc1)C(=O)N2 [PET Tracer 1] | no significant difference | significant difference | – |
| – | Polyenephosphatidylcholine [Polyenephosphatidylcholine (PPC)] | – | – | prevented alcoholic liver fibrosis |
